These results are taken from patent US20250059165A1, “PIPERIDINYLPYRIDINYLCARBONITRILE DERIVATIVES AS INHIBITORS OF GLUTAMINYL-PEPTIDE CYCLOTRANSFERASE AND GLUTAMINYL-PEPTIDE CYCLOTRANSFERASE LIKE PROTEIN” (Boehringer Ingelheim International GmbH, priority 2023, published 2025).

Each structure is given as a SMILES string.

For one data set, the target named is T1, QPCTL (Homo sapiens, UniProt Q9NXS2).
T1 construct: made in house
The data set is described as follows: Assay A: biochemical QPCTL activity assay (MALDI-TOF MS, CD47 peptide substrate). The following applies: 0.5 nM enzyme, 10 μM CD47 peptide substrate; read-out: Inhibition of QPCTL: IC50. As for the experimental part: (§1) QPCT or QPCTL dependent conversion of N-terminal glutamine to pyroglutamate of CD47 was monitored via MALDI-TOF MS. Test compounds were dissolved in 100% DMSO and serially diluted into clear 1,536-well microtiter plates. […] The plates were incubated for 10 min in a humidified incubator at 24° C. Subsequently, 2.5 μL of CD47 peptide substrate surrogate (^19[…]^33) was added to each well (final concentration: 10 μM for QPCTL/20 μM for QPCT). […] The plates were sealed with an adhesive foil, mixed for 30 s at 1,000 rpm and stored at room temperature until preparation of the MALDI target plates. MALDI target plates were prepared as described previously. […] QPCT or QPCTL activity was monitored by calculating the ratio between product and internal standard signals followed by normalization to high (100% activity) and low (0% activity) controls. Determination of compound potencies was obtained by fitting the dose-response data to a four-parameter logistical equation.

In another data set the target is T2, QPCT (Homo sapiens, UniProt Q16769).
T2 construct: purchased Origine (OriGene) TP700028
Kind of data set: Assay A: biochemical QPCT activity assay (MALDI-TOF MS, CD47 peptide substrate). Conditions: 0.5 nM enzyme, 20 μM CD47 peptide substrate; read-out: Inhibition of QPCT: IC50. The method, then: as §1

Data set [1] relates to SIRPα signalling induced by Raji cells. Kind of data set: Assay B: SIRPα signalling assay using Raji cells. The data set is classed as cell-based. Conditions: Homo sapiens, 48 h compound incubation, Jurkat PathHunter SIRPαV1 reporter cells, read-out: Inhibition of SIRPα signalling induced by Raji cells: IC50. The method, then:
(§2) Two cell types are independently used: the Raji cell line (lymphoblast-like human cell line derived from B lymphocytes from a Burkitt's lymphoma patient in 1963) and A549 cells (adenocarcinomic human alveolar basal epithelial cells).
(§3) Test compounds were dissolved in 100% DMSO and serially diluted into a white 384-well microtiter cell culture plate (PerkinElmer #60076780 in case of Raji assay; PDL-coated plates Greiner #781945 in case of A549 assay). 5000 Raji cells (ATCC #CC86) or 5000 A549 cells (ATCC #CCL-185) in Assay Complete Cell Plating reagent 30 (DiscoverX 93-0563R30B) were added per well. The assay plate was incubated for 48 h at 37° C., 95% humidity and 5% CO2. 15000 reporter cells (Jurkat PathHunter SIRPαV1, DiscoverX #93-1135C19) were added to each well, and the plate was incubated for 5 h at 37° C., 95% humidity and 5% CO2. Bioassay reagent 1 of the PathHunter Bioassay detection kit (DiscoverX 93-0001) was added to each well of the plate using a multichannel pipette followed by a 15 min incubation at room temperature. Afterwards bioassay reagent 2 was added followed by […] incubation at room temperature (incubation in the dark). The analysis of the data was performed using the luminescence signal generated by beta-galactosidase in the PathHunter reporter cell line. The luminescence measurement was done using a Pherastar Multi-Mode Reader. Dose-response curves & IC50 data were calculated with 4-parameter sigmoidal dose response formula.

Data set [2] has as its system SIRPα signalling induced by A549 cells. The data set is described as follows: Assay B: SIRPα signalling assay using A549 cells. The data set is classed as cell-based. The following applies: Homo sapiens, 48 h compound incubation, Jurkat PathHunter SIRPαV1 reporter cells, read-out: Inhibition of SIRPα signalling induced by A549 cells: IC50. The method, then: as §2, §3

Data set [3] is described as follows: Assay C: permeability in CACO-2 cells. The data set is classed as in vitro ADME. The following applies: human, pH 7.2; for efflux ratio: Caco-2, Permeability B-A/Permeability A-B; for Papp A→B: Caco-2, apical to basolateral. The method, then:
Caco-2 cells (1−2×10^5 cells/1 cm^2 area) are seeded on filter inserts (Costar transwell polycarbonate or PET filters, 0.4 µm pore size) and cultured (DMEM) for 10 to 25 days. Compounds are dissolved in appropriate solvent (like DMSO, 1-20 mM stock solutions). […] The transport solution (TL) is applied to the apical or basolateral donor side for measuring A-B or B-A permeability (3 filter replicates), respectively. Samples are collected at the start and end of experiment from the donor and at various time intervals for up to 2 hours also from the receiver side for concentration measurement by HPLC-MS/MS or scintillation counting. Sampled receiver volumes are replaced with fresh receiver solution. Efflux Ratio (ER)=Permeability B-A/Permeability A-B
A general note: Passage across Caco-2 layers is used to estimate intestinal permeability.

T1 sequence (Q9NXS2 whole entry): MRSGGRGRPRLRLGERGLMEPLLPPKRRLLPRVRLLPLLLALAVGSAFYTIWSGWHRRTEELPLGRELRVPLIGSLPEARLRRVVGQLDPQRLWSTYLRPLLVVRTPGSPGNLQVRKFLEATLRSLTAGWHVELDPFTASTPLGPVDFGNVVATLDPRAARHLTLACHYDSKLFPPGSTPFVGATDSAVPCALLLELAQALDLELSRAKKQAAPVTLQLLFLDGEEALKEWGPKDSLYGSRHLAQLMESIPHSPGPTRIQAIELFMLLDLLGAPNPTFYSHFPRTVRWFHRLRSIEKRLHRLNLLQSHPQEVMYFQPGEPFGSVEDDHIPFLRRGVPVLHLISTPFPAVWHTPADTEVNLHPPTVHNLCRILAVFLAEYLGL
T2 sequence (Q16769 29-361): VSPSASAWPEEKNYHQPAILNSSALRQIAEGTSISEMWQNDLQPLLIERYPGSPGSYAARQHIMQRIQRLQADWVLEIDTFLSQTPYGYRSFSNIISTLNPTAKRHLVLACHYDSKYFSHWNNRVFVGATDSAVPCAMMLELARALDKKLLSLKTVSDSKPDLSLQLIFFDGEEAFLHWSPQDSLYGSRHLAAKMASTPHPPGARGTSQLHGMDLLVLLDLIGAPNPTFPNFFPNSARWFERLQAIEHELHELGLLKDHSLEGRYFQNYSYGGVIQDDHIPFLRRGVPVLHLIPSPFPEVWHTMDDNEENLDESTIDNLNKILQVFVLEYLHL

One may read the IC50 as the midpoint of a concentration-inhibition curve. As a reminder, the efflux ratio is a quotient of directional permeabilities that is used to spot active efflux. The Papp A→B is how fast a substance crosses the layer from the apical side. A low value points to poor permeation. Take `Cn1cnnc1C1(F)CCN(c2c(C#N)ccnc2-c2cnn3nc(-c4cscc4C#N)ccc23)CC1` [Example 26]: the IC50 at QPCTL worked out at 3 nM; at QPCT it was 2 nM; in data set [1] it was 148 nM; in data set [2], 101 nM. Moreover, the efflux ratio in data set [3] is 11.5. The Papp A→B in data set [3] came to 7.2 ×10⁻⁶ cm/s.
For `Cn1cc(-c2ccc3c(-c4nccc(C#N)c4N4CCC(F)(c5nncn5C)CC4)cnn3n2)cn1` [Example 25], the IC50 stood at 1 nM at QPCTL, 6 nM on QPCT, 150 nM in data set [1] and 78 nM in data set [2]. Besides, in data set [3], the efflux ratio was 7.7. Besides, in data set [3], the apparent permeability from apical to basolateral (Papp A→B) stood at 5.3 ×10⁻⁶ cm/s.
Consider `Cn1cnnc1C1(F)CCN(c2c(C#N)ccnc2-c2cnc3nn(Cc4ccc(C(F)(F)F)nc4)nc3c2)CC1` [Example 13], for which the IC50 at QPCTL is 8 nM; at QPCT, 24 nM; in data set [1], 596 nM; in data set [2], 358 nM. For the same compound, the efflux ratio in data set [3] turned out to be 9. Further, in data set [3], the Papp A→B was determined as 6.2 ×10⁻⁶ cm/s.
In the case of `Cn1cnnc1C1(F)CCN(c2c(C#N)ccnc2-c2cnc3nn(Cc4ccccc4)nc3c2)CC1` [Example 12], the IC50 at QPCTL is 3 nM; on QPCT, 4 nM; in data set [1], 150 nM; in data set [2], 45 nM. Besides, the efflux ratio in data set [3] is 9.9. The same compound returned a Papp A→B in data set [3] of 9.4 ×10⁻⁶ cm/s.
As to `Cn1cnnc1C1(F)CCN(c2c(C#N)ccnc2-c2cnn3nc(-c4ccccc4Cl)ccc23)CC1` [Example 29], the IC50 came to 2 nM at QPCTL, 1 nM on QPCT, 64 nM in data set [1] and 27 nM in data set [2]. For the same compound, in data set [3], the efflux ratio came out at 1.7. The Papp A→B in data set [3] came to 39 ×10⁻⁶ cm/s.
As to `Cn1cnnc1C1(F)CCN(c2c(C#N)ccnc2-c2cncc(-c3ncco3)c2)CC1` [Example 11], the IC50 on QPCTL stood at 13 nM; on QPCT it was 48 nM; in data set [1] it was 1170 nM; in data set [2], 419 nM. Moreover, the efflux ratio in data set [3] worked out at 5. The compound also returned a Papp A→B in data set [3] of 13 ×10⁻⁶ cm/s.
With `COCCOc1ncc(-c2nccc(C#N)c2N2CCC(F)(c3nncn3C)CC2)cn1` [Example 10], the IC50 on QPCTL turned out to be 8 nM; at QPCT, 30 nM; in data set [1] it was 536 nM; in data set [2] it was 283 nM. For the same compound, in data set [3], the efflux ratio stood at 13.1. The compound also came in with a Papp A→B in data set [3] of 1.6 ×10⁻⁶ cm/s.
Take `Cn1cnnc1C1(F)CCN(c2c(C#N)ccnc2-c2cnn3nc(-c4ccccc4F)ccc23)CC1` [Example 31]: the IC50 at QPCTL was found to be 3 nM; at QPCT, 3 nM; in data set [1], 54 nM; in data set [2] it was 31 nM. Further, the efflux ratio in data set [3] came to 1.2. The compound also registered a Papp A→B in data set [3] of 54 ×10⁻⁶ cm/s.
